This note sets out measurements from patent US20110166121A1 (LG LIFE SCIENCES LTD., priority 2008, published 2011).

Broadly, the Ki is the equilibrium dissociation constant of an inhibitor or competing ligand from its target. A high value points to weaker binding.

Structures can show the parent of a compound that is named as a salt.

The test relates to Human platelet aggregation caused by ADP. Nature of the test: Inhibition of ADP-induced platelet aggregation (Mimic-human PRP). In kind it is cell-based. Conditions: 20 μM ADP, human platelet concentrate diluted with PPP, absorption at 595 nm. Here is the method: Platelet Preparation for Aggregation Studies
Human platelet aggregation reaction test is a functional experiment method to verify whether a test compound is an agonist or an antagonist to ADP receptor. […] The platelet product isolated from whole blood was purchased from Chung-Nam blood center (Dae-joen, South Korea). The platelet was isolated from 400 mL of whole blood containing 56 mL of CPDA-1 anticoagulant. To isolate the platelet product, 400 mL of whole blood was centrifuged at 260×g for 5 minutes, and then obtained PRP (platelet rich plasma) was secondary centrifuged at 370×g for 6 minutes. Platelet pellet (10^9/mL) was suspended with 45 mL of plasma and then agitated over 1 hour at 22° C. blood reservoir to stabilize it. The stabilized platelet product was used in the experiment within 24 hours. PCs (Platelet Concentrates) were gently transferred to a new 50 ml-falcon tube. The number of platelet was counted by using animal blood counter (ABC Vet, ABX diagnostics, France). The volume of 30 mL of PCs collected from same donor was centrifuged at 1500 g for 10 min at room temperature to prepare platelet-poor plasma (PPP). The platelet count was adjusted to platelet number of 3˜4×10^8/mL by diluting with PPP.
Evaluation on Inhibitory Effect of ADP-Induced Aggregation
Inhibition of ADP-induced aggregation was determined in 96-well flat-bottom plates (Costar, USA) at room temperature. The diluted platelet was aliquoted into each well of 96 well plate in the volume of 188 μl. […] The platelet including test compounds was immediately mixed on a shaker at 1050 rpm for 1 min and incubated at room temperature for 20 min. Then, 10 μL volume of 400 μM ADP was added: the final concentration of 20 μM ADP in the total reaction volume of 0.2 mL/well. After shaking of the plate at room temperature for 3 min, the absorption of the samples was determined at 595 nm using a microtiter plate reader (Softmax, Molecular Devices).
A dose-dependent curve on serial dilutions of ADP was accomplished by adding vehicle (DMSO) instead of antagonists in order to calculate EC50 of ADP. Inhibition of aggregation was calculated from the increase of absorption at 595 nm at 3 min of the reaction incubation, compared to results of absorption between the 0 and 20 μM ADP control without antagonists. Sigmoidal dose-response curves and Ki were derived by non-linear regression analysis using the Prism software (GraphPad, San Diego Calif.).

Take `CCCc1cc2c(N3CCn4c(nnc4C(F)(F)F)C3)nc(N3CC[C@H](NC(=O)C(C)(C)O)C3)nc2s1` [Example 1-107, 2-Hydroxy-2-methyl-N-{(S)-1-[6-propyl-4-(3-trifluoromethyl-5,6-dihydro-8H-[1,2,4]triazolo[4,3-a]pyrazin-7-yl)-thieno[2,3-d]pyrimidin-2-yl]-pyrrolidin-3-yl}-propionamide]: the inhibition constant Ki is 19 nM.

Regarding `CCCc1cc2c(N3CCn4c(nnc4C(F)(F)F)C3)nc(N3CC[C@H](NC(=O)C4CC4)C3)nc2s1` [Example 1-108, Cyclopropanecarboxylic Acid {(S)-1-[6-propyl-4-(3-trifluoromethyl-5,6-dihydro-8H-[1,2,4]triazolo[4,3-a]pyrazin-7-yl)-thieno[2,3-d]pyrimidin-2-yl]-pyrrolidin-3-yl}-amide], affinity was put at a Ki of 9.3 nM.

`CCCc1cc2c(N3CCn4c(nnc4C(F)(F)F)C3)nc(N3CC(N)C(O)C3)nc2s1` (stereo not drawn) [Example 1-114, 4-Amino-1-[6-propyl-4-(3-trifluoromethyl-5,6-dihydro-8H-[1,2,4]triazolo[4,3-a]pyrazin-7-yl)-thieno[2,3-d]pyrimidin-2-yl]-pyrrolidin-3-ol] gave a Ki of 3.8 nM.

In turn, `CCCc1cc2c(N3CCn4c(nnc4C(F)(F)F)C3)nc(N(CCO)CC(=O)O)nc2s1` [Example 1-118, {(2-Hydroxy-ethyl)-[6-propyl-4-(3-trifluoromethyl-5,6-dihydro-8H-[1,2,4]triazolo[4,3-a]pyrazin-7-yl)-thieno[2,3-d]pyrimidin-2-yl]-amino}-acetic acid] came in with an inhibitory constant (Ki) of 34 nM.

Turning to `CCCc1cc2c(N3CCn4c(nnc4C(F)(F)F)C3)nc(N3CC[C@H](NC(=O)Cc4csc(N)n4)C3)nc2s1` [Example 1-119, 2-(2-Amino-thiazol-4-yl)-N-{(S)-1-[6-propyl-4-(3-trifluoromethyl-5,6-dihydro-8H-[1,2,4]triazolo[4,3-a]pyrazin-7-yl)-thieno[2,3-d]pyrimidin-2-yl]-pyrrolidin-3-yl}-acetamide], the affinity corresponds to a Ki of 7.2 nM.

`CCCc1cc2c(N3CCn4c(nnc4C(F)(F)F)C3)nc(N3CC[C@H](NC(=O)Cc4ccccn4)C3)nc2s1` [Example 1-121, N-{(S)-1-[6-Propyl-4-(3-trifluoromethyl-5,6-dihydro-8H-[1,2,4]triazolo[4,3-a]pyrazin-7-yl)-thieno[2,3-d]pyrimidin-2-yl]-pyrrolidin-3-yl}-2-pyridin-2-yl-acetamide] gave an inhibition constant (Ki) of 19 nM.

In the case of `CCCc1cc2c(N3CCn4c(nnc4C(F)(F)F)C3)nc(N3CCS(=O)(=O)CC3)nc2s1` [Example 1-124, 7-[2-(1,1-Dioxo-1lambda*6*-thiomorpholin-4-yl)-6-propyl-thieno[2,3-d]pyrimidin-4-yl]-3-trifluoromethyl-5,6,7,8-tetrahydro-[1,2,4]triazolo[4,3-a]pyrazine], the affinity, expressed as Ki, was 3.9 nM.

Compound `CCCc1cc2c(N3CCn4c(nnc4C(F)(F)F)C3)nc(N3C=CC4=NCCNC4=C3)nc2s1` [Example 1-133, 6-[6-Propyl-4-(3-trifluoromethyl-5,6-dihydro-8H-[1,2,4]triazolo[4,3-a]pyrazin-7-yl)thieno[2,3-d]pyrimidin-2-yl]-2,3,4,6-tetrahydro-pyrido[3,4-b]pyrazine] returned a Ki of 145 nM.

`CCCc1cc2c(N3CCn4c(nnc4C(F)(F)F)C3)nc(OCCNCC(=O)OCC)nc2s1` [Example 3-54, {2-[6-Propyl-4-(3-trifluoromethyl-5,6-dihydro-8H-[1,2,4]triazolo[4,3-a]pyrazin-7-yl)-thieno[2,3-d]pyrimidin-2-yloxy]-ethylamino}-acetic acid ethyl ester] returned an inhibition constant Ki of 206 nM.

`CCCc1cc2c(N3CCn4c(nnc4C(F)(F)F)C3)nc(OCCN(CC(=O)OCC)C(=O)C3CC3)nc2s1` [Example 3-56, (Cyclopropanecarbonyl-{2-[6-propyl-4-(3-trifluoromethyl-5,6-dihydro-8H-[1,2,4]triazolo[4,3-a]pyrazin-7-yl)-thieno[2,3-c]pyrimidin-2-yloxy]-ethyl}-amino)-acetic acid ethyl ester] had a Ki of 75 nM.

Compound `CCCc1cc2c(N3CCn4c(nnc4C(F)(F)F)C3)nc(OCCN(CC(=O)O)C(=O)C3CC3)nc2s1` [Example 3-57, (Cyclopropanecarbonyl-{2-[6-propyl-4-(3-trifluoromethyl-5,6-dihydro-8H-[1,2,4]triazolo[4,3-a]pyrazin-7-yl)-thieno[2,3-d]pyrimidin-2-yloxy]-ethyl}-amino)-acetic acid] gave a Ki of 23 nM.

As for `CCCc1cc2c(N3CCn4c(nnc4C(F)(F)F)C3)nc(OCCNC(=O)C3CC3)nc2s1` [Example 3-59, Cyclopropanecarboxylic Acid {2-[6-propyl-4-(3-trifluoromethyl-5,6-dihydro-8H-[1,2,4]triazolo[4,3-a]pyrazin-7-yl)-thieno[2,3-d]pyrimidin-2-yloxy]-ethyl}-amide], the affinity corresponds to a Ki of 1.5 nM.

In the case of `CCCc1cc2c(N3CCn4c(nnc4C(F)(F)F)C3)nc(OCCNC(=O)CO)nc2s1` [Example 3-60, 2-Hydroxy-N-{2-[6-propyl-4-(3-trifluoromethyl-5,6-dihydro-8H-[1,2,4]triazolo[4,3-a]pyrazin-7-yl)-thieno[2,3-d]pyrimidin-2-yloxy]-ethyl}-acetamide], the Ki came to 0.7 nM.

The compound `CCCc1cc2c(N3CCn4c(nnc4C(F)(F)F)C3)nc(OCCNC(=O)C(F)(F)F)nc2s1` [Example 3-61, 2,2,2-Trifluoro-N-{2-[6-propyl-4-(3-trifluoromethyl-5,6-dihydro-8H-[1,2,4]triazolo[4,3-a]pyrazin-7-yl)-thieno[2,3-d]pyrimidin-2-yloxy]-ethyl}-acetamide] registered a Ki of 5.4 nM.

Turning to `CCCc1cc2c(N3CCn4c(nnc4C(F)(F)F)C3)nc(OCCN3CCCC3=O)nc2s1` [Example 3-62, 1-{2-[6-Propyl-4-(3-trifluoromethyl-5,6-dihydro-8H-[1,2,4]triazolo[4,3-a]pyrazin-7-yl)-thieno[2,3-d]pyrimidin-2-yloxy]-ethyl}-pyrrolidin-2-one], the Ki amounted to 1.9 nM.

`CCCc1cc2c(N3CCn4c(nnc4C(F)(F)F)C3)nc(-c3nc(C(=O)O)cs3)nc2s1` [Example 4-46, 2-[6-Propyl-4-(3-trifluoromethyl-5,6-dihydro-8H-[1,2,4]triazolo[4,3-a]pyrazin-7-yl)thieno[2,3-d]pyrimidin-2-yl]thiazole-4-carboxylic acid] gave a Ki of 25 nM.

In turn, `CCCC(=O)N[C@H]1CCN(c2nc(N3CCn4c(nnc4C(F)(F)F)C3)c3cc(CCC)sc3n2)C1` [Example 7-1, Hydrochloric acid salt of N-{(S)-1-[6-Propyl-4-(3-trifluoromethyl-5,6-dihydro-8H-[1,2,4]triazolo[4,3-a]pyrazin-7-yl)-thieno[2,3-d]pyrimidin-2-yl]-pyrrolidin-3-yl}-butyramide] registered an inhibition constant (Ki) of 11 nM.

`CCCc1cc2c(N3CCn4c(nnc4C(F)(F)F)C3)nc(N3CC[C@H](NC(=O)C(C)C)C3)nc2s1` [Example 7-2, Hydrochloric acid salt of N-{(S)-1-[6-Propyl-4-(3-trifluoromethyl-5,6-dihydro-8H-[1,2,4]triazolo[4,3-a]pyrazin-7-yl)-thieno[2,3-d]pyrimidin-2-yl]-pyrrolidin-3-yl}-isobutyramide] came in with a Ki of 79 nM.

In turn, `CCCc1cc2c(N3CCn4c(nnc4C(F)(F)F)C3)nc(N3CC[C@@H](NC(C)=O)C3)nc2s1` [Example 7-3, Hydrochloric acid salt of N-{(R)-1-[6-Propyl-4-(3-trifluoromethyl-5,6-dihydro-8H-[1,2,4]triazolo[4,3-a]pyrazin-7-yl)-thieno[2,3-d]pyrimidin-2-yl]-pyrrolidin-3-yl}-acetamide] showed a Ki of 26 nM.

In the case of `CCCC(=O)N[C@@H]1CCN(c2nc(N3CCn4c(nnc4C(F)(F)F)C3)c3cc(CCC)sc3n2)C1` [Example 7-4, Hydrochloric acid salt of N-{(R)-1-[6-Propyl-4-(3-trifluoromethyl-5,6-dihydro-8H-[1,2,4]triazolo[4,3-a]pyrazin-7-yl)-thieno[2,3-d]pyrimidin-2-yl]-pyrrolidin-3-yl}-butyramide], the affinity corresponds to a Ki of 75 nM.

`CCCc1cc2c(N3CCn4c(nnc4C(F)(F)F)C3)nc(N3CC[C@@H](NC(=O)C(C)C)C3)nc2s1` [Example 7-5, Hydrochloric acid salt of N-{(R)-1-[6-Propyl-4-(3-trifluoromethyl-5,6-dihydro-8H-[1,2,4]triazolo[4,3-a]pyrazin-7-yl)-thieno[2,3-d]pyrimidin-2-yl]-pyrrolidin-3-yl}-isobutyramide] yielded a Ki of 32 nM.
